{
  "source": "paper PMC3130785",
  "about": "“Small Compound 6-O-Angeloylplenolin Induces Mitotic Arrest and Exhibits Therapeutic Potentials in Multiple Myeloma” (PLoS ONE, 2011)",
  "key": {"MM.1R cells": {"tested_on": "MM.1R cells", "assay": "MTT assay, Dex with or without 6-OAP", "type": "cell-based, human", "conditions": "48 h, 6-OAP 7.5 µM", "method": "U266, RPMI 8226 cells (1×10^4), primary CD138+ cells, PBMCs (5×10^4), and BMSCs (1×10^4) were cultured in 96-well dishes and incubated without or with 6-OAP at indicated concentration for 48 h. MM.1S and MM.1R cells (2×10^4) were seeded into 96-well dishes and pre-cultured for 24 h, then treated with 6-OAP for 48 h. Cell proliferation was determined by MTT assay. Cell viability was estimated by trypan blue dye exclusion.\nFigure 4 6-OAP enhances cytotoxicity of Dox, Dex and BOR to MM cells. (A through C) MM.1S cells were treated for 48 h with Dox (A), Dex (B) or BOR (C) in the presence or absence of 6-OAP at 5 µM. MTT assay was used to test the proliferation of MM.1S cells. (D) MM.1R cells were treated for 48 h with Dex in the presence or absence of 6-OAP at 7.5 µM. MTT assay was used to test the proliferation of MM.1R cells. *p<.001,** p<.05. (E) MM.1S cells were cultured with control media (con), 6-OAP (O, 5 µM), BOR (B, 3 nM), or 6-OAP (5 µM) plus BOR (3 nM) (OB) for indicated time points. Cells were then lysed and subjected to Western blotting using indicated antibodies. CF, cleavage fragment."}, "PDK-1": {"tested_on": "PDK-1", "assay": "Western blotting, IGF-I stimulation", "type": "cell-based, human", "conditions": "MM.1S; IGF-I 50 ng/ml", "method": "(§1) Cell pellets were lysed in RIPA buffer containing 50 mM Tris pH 8.0, 150 mM NaCl, 0.1% SDS, 0.5% deoxycholate, 1% NP-40, 1 mM DTT, 1 mM NaF, 1 mM sodium vanadate, and protease inhibitors cocktail (Sigma). For immunoprecipitations, cells were lysed on ice for 15 minutes in RIPA buffer. Lysates were centrifuged. The supernatant was incubated with indicated antibodies overnight, after which protein A/G Plus beads (Santa Cruz Biotechnology) were added and incubated for 3 h. The beads were washed 4 times in RIPA buffer. Then the beads were resuspended in 1× sample buffer and boiled for 3 min. Protein extracts were quantitated and loaded on 8% to 12% sodium dodecyl sulfate polyacrylamide gel, electrophoresed, and transferred to a nitrocellulose membrane (Whatman). The membrane was incubated with primary antibody, washed, and incubated with horseradish peroxidase (HRP)–conjugated secondary antibody (Pierce). Detection was performed by using a chemiluminescent western detection kit (Cell Signaling). […]\n(§2) Figure 5 6-OAP overcomes the protective effects of IL-6, IGF-I and BMSCs on MM cells. […] Cell proliferation was assessed by MTT assay. […] Cell proliferation was assessed by MTT assay. *p<.01,** p<.05. […]"}, "pAkt": {"tested_on": "pAkt", "assay": "Western blotting, IGF-I stimulation", "type": "cell-based, human", "conditions": "MM.1S; 6-OAP 7.5 µM for 12 h; IGF-I 50 ng/ml", "method": "as §1, §2"}, "pERK1/2": {"tested_on": "pERK1/2", "assay": "Western blotting, 6-OAP/BOR", "type": "cell-based, human", "conditions": "MM.1S; 6-OAP 5 µM for 6 h", "method": "as §1"}, "[1]": {"tested_on": "human colorectum, liver, stomach, lung, and skin tumor cells", "set-up": "method as in PMID 20183316", "conditions": "preliminary data; cited from earlier work"}},
  "data": [
    {"smiles": "CC=C(C)C(=O)OC1C2C(CC(C)C3C=CC(=O)C31C)OC(=O)C2C", "note": "(centres unmarked) [6-OAP, 6-O-angeloylplenolin]", "values": [
      {"measurement": "effect on inhibitory effect of Dex", "setting": "MM.1R cells", "result": "drastically potentiated inhibitory effect"},
      {"measurement": "phosphorylation of PDK-1", "setting": "PDK-1", "result": "not affected"},
      {"measurement": "IGF-I-induced pAkt expression", "setting": "pAkt", "result": "inhibited"},
      {"measurement": "phosphorylated ERK1/2", "setting": "pERK1/2", "result": "induced an increase in phosphorylated ERK1/2"},
      {"measurement": "proliferation of tumor cells", "setting": "[1]", "result": "could inhibit proliferation"}
    ]}
  ]
}
